Several values for one entry are separate records, joined by “and”; a condition that tells them apart may be missing. Identical values can stand only once. Values belong to the compound of their own block, whether it stands above or below them.
Experiment: solvent given as SMILES
[1] = in c1ccc2c(c1)c1ccccc1n2-c1ccc(-c2ccc(-n3c4ccccc4c4ccccc43)cc2)cc1

Structure (SMILES): O=C(c1ccc(-n2c3ccc(-c4ccccc4)cc3c3cc(-c4ccccc4)ccc32)cc1)c1ccc(-n2c3ccc(-c4ccccc4)cc3c3cc(-c4ccccc4)ccc32)cc1
emission maximum (in Cc1ccccc1): 438 nm

Structure (SMILES): c1ccc2[nH]ccc2c1
emission maximum (in O): 360 nm and 345 nm and 340 nm

Structure (SMILES): CC1(C)c2ccccc2N(c2ccc(-c3nc(-c4ccccc4)cc(-c4ccccc4)n3)cc2)c2ccccc21
emission maximum (in Cc1ccccc1): 454.83 nm

Structure (SMILES): Cc1cc2c(o1)=CC1=C(C(F)(F)F)c3cc4oc(C)cc4n3[B-](F)(F)[N+]=21
emission maximum (in ClC(Cl)Cl): 620 nm

Structure (SMILES): COc1c(C(C)=O)c(=O)oc2cc(N(C)C)ccc12
emission maximum (in ClCCl): 419 nm

Structure (SMILES): CCCCCCCCCCCCn1cccc1/C=C/c1ccc(/C=C/c2cccn2CCCCCCCCCCCC)cc1
emission maximum (in Cc1ccccc1): 443 nm

Structure (SMILES): Fc1ccc2cc3cccc[n+]3cc2c1
emission maximum (in O): 408 nm

Structure (SMILES): N#C/C(=C\c1ccc(Cl)cc1)c1nc2ccccc2s1
emission maximum (in C1CCCCC1): 390 nm
emission maximum (in CO): 430 nm

Structure (SMILES): Cc1nc2cccc(-c3nc4ccccc4o3)c2c(=O)[nH]1
emission maximum (in CN(C)C=O): 398 nm

Structure (SMILES): CC1=CC(C)=[N+]2C1=Cc1c3ccccc3c(C#Cc3ccsc3)n1[B-]2(F)F
emission maximum (in CCCCCC): 615 nm
emission maximum (in CCCCCCCCO): 621 nm
emission maximum (in CCOC(C)=O): 616 nm
emission maximum (in CN(C)C=O): 623 nm
emission maximum (in ClCCl): 628 nm

Structure (SMILES): O=C1[C@@H]2[C@H](C(=O)N1c1ccc3cc4ccccc4cc3c1)[C@@H]1C=C[C@H]2C1
emission maximum (in ClC(Cl)Cl): 386 nm

Structure (SMILES): O=C(O)CCCc1cc(C#Cc2ccccc2)c2ccc3c(C#Cc4ccccc4)cc(C#Cc4ccccc4)c4ccc1c2c34
emission maximum (in CS(C)=O): 461 nm
emission maximum (in ClC(Cl)(Cl)Cl): 460 nm

Structure (SMILES): N#Cc1c(-n2nnc3c2CCC2C(CC3)[C@@H]2CO)n([C@H]2C[C@H](O)[C@@H](CO)O2)c2ncnc(N)c12 (stereo partly specified)
emission maximum (in CO): 380 nm

Structure (SMILES): c1ccc(-c2nc(-c3ccccc3)nc(-c3ccc(-n4c5ccccc5c5cc6c(cc54)c4ccccc4n6-c4ccccc4)cc3)n2)cc1
emission maximum (in Cc1ccccc1): 478 nm
emission maximum (in O=P(c1ccccc1)(c1ccccc1)c1ccc2oc3ccc(P(=O)(c4ccccc4)c4ccccc4)cc3c2c1): 511 nm

Structure (SMILES): CCOC(=O)CN1C(=O)C2=C(c3ccc(N4CCCCC4)cc3)N(CC(=O)OCC)C(=O)C2=C1c1ccc(N2CCCCC2)cc1
emission maximum (in CC#N): 590 nm
emission maximum (in CS(C)=O): 603 nm
emission maximum (in Cc1ccccc1): 575 nm

Structure (SMILES): CCC/N=C/c1cc2ccc(N(C)C)cc2cc1OC
emission maximum (in C1CCOC1): 429 nm
emission maximum (in CC#N): 448 nm
emission maximum (in CC(C)O): 547 nm
emission maximum (in CCOC(C)=O): 441 nm
emission maximum (in CN(C)C=O): 449 nm
emission maximum (in CS(C)=O): 456 nm
emission maximum (in Cc1ccccc1): 418 nm
emission maximum (in ClCCl): 434 nm
emission maximum (in O): 556 nm

Structure (SMILES): COc1ccc2nc(-c3ccccc3)c(=O)oc2c1
emission maximum (in c1ccccc1): 448 nm

Structure (SMILES): CCCCN1/C(=C/C=C/C2=[N+](C)c3ccccc3C2(C)C)C(C)(C)c2ccccc21
emission maximum (in CS(C)=O): 565 nm

Structure (SMILES): CCN(CC)c1ccc2cc(C#N)/c(=N\C(=O)c3ccco3)oc2c1
emission maximum (in CCO): 470 nm
emission maximum (in ClCCl): 460 nm

Structure (SMILES): C[C@@]12SC(Cl)=CC1=c1nc(-c3ccc(Cl)cc3)[nH]c1=C1C=C(Cl)S[C@]12C
emission maximum (in CC#N): 449 nm

Structure (SMILES): F[B-]1(F)OC(/C=C/c2ccccc2)=CC(c2ccccc2)=[O+]1
emission maximum (in ClCCl): 443 nm

Structure (SMILES): Cc1cc2nc3c(=O)[nH]c(=O)n(C)c3nc2cc1C
emission maximum (in CC#N): 437 nm

Structure (SMILES): CC(=O)c1c(N[C@@H](Cc2ccccc2)C(=O)O)c2ccc(N(C)C)cc2oc1=O
emission maximum (in ClCCl): 450 nm

Structure (SMILES): CN(C)c1ccc(/C=C/c2ccnc(/C=C/c3ccc(N(C)C)cc3)n2)cc1
emission maximum (in C1CCOC1): 484 nm
emission maximum (in CC#N): 513 nm
emission maximum (in CC(C)=O): 523 nm
emission maximum (in CCCCCCC): 433 nm
emission maximum (in CS(C)=O): 527 nm
emission maximum (in Cc1ccccc1): 455 nm
emission maximum (in ClCCl): 493 nm

Structure (SMILES): CCCCCCCCCCCCC1(CCCCCCCCCCCC)c2cc(-c3ccc(C=C4C(=O)c5ccccc5C4=O)cc3)ccc2-c2ccc(-c3ccc(C=C4C(=O)c5ccccc5C4=O)cc3)cc21
emission maximum (in C1CCOC1): 531 nm
emission maximum (in CC(C)=O): 566 nm
emission maximum (in CCCCCC): 463 nm
emission maximum (in CS(C)=O): 598 nm
emission maximum (in Cc1ccccc1): 490 nm
emission maximum (in ClC(Cl)Cl): 529 nm

Structure (SMILES): CN(C)c1ccc(-c2c(/C=C3/C=Cc4ccccc4N3C)c(=O)c2=O)cc1
emission maximum (in C1CCCCC1): 427 nm
emission maximum (in Cc1ccccc1): 435 nm
emission maximum (in ClCCl): 588 nm

Structure (SMILES): CCn1c2cc(OC)ccc2c2c3nsnc3c3c4ccc(OC)cc4n(CC)c3c21
emission maximum (in CN(C)C=O): 557 nm
emission maximum (in Cc1ccccc1): 517 nm
emission maximum (in ClCCl): 553 nm

Structure (SMILES): O=C1c2ccc(N(c3ccc(-c4ccccc4)cc3)c3ccc(-c4ccccc4)cc3)cc2C(=O)c2ccc(N(c3ccc(-c4ccccc4)cc3)c3ccc(-c4ccccc4)cc3)cc21
emission maximum (in Cc1ccccc1): 629 nm
emission maximum [1]: 603 nm

Structure (SMILES): Fc1cccc(F)c1[B-]1(c2c(F)cccc2F)Oc2c(ccc3c4c(ccc23)C=[N+](c2ccccc2)[B-](c2c(F)cccc2F)(c2c(F)cccc2F)O4)C=[N+]1c1ccccc1
emission maximum (in Cc1ccccc1): 592 nm
emission maximum (in ClCCl): 585 nm

Structure (SMILES): CON(OC)c1cc2c3cc(-c4c(C)cc(C)cc4C)cc4c5cc(-c6c(C)cc(C)cc6C)cc6c7cc(B(c8c(C)cc(C)cc8C)c8c(C)cc(C)cc8C)cc8c9cc(-c%10c(C)cc(C)cc%10C)cc%10c%11cc(-c%12c(C)cc(C)cc%12C)cc%12c(c1)c2c1c(c43)c(c65)c(c78)c(c9%10)c1c%11%12
emission maximum (in C1CCOC1): 591 nm
emission maximum (in CC(C)=O): 615 nm
emission maximum (in CCCCCC): 490 nm
emission maximum (in Cc1ccccc1): 510 nm
emission maximum (in ClC(Cl)Cl): 545 nm
emission maximum (in ClCCl): 585 nm

Structure (SMILES): CC(C)(C)c1ccc2c(c1)c1cc(C(C)(C)C)ccc1n2-c1cc(-n2c3ccc(C(C)(C)C)cc3c3cc(C(C)(C)C)ccc32)c(-n2c3ccc(C(C)(C)C)cc3c3cc(C(C)(C)C)ccc32)c(C#N)c1-n1c2ccc(C(C)(C)C)cc2c2cc(C(C)(C)C)ccc21
emission maximum (in CCCCCC): 449.25 nm
emission maximum (in CCO): 484.15 nm
emission maximum (in Cc1ccccc1): 456 nm
emission maximum (in ClCCl): 472.48 nm

More lines, main results first:

emission maximum (in C1CCOC1): 650 nm
Structure (SMILES): C(=C\c1c2ccccc2cc2ccccc12)/c1c2ccccc2cc2ccccc12

emission maximum (in ClCCl): 550 nm
Structure (SMILES): COc1ccc(-c2c3ccccc3c(C#Cc3ccccc3)c3cc4ccccc4cc23)cc1

emission maximum (in ClCCl): 380 nm
Structure (SMILES): c1ccc(N(c2ccccc2)c2ccc(-n3ccc4cc(-c5ccc6c(c5)C(c5ccccc5)(c5ccccc5)c5ccccc5-6)ccc43)cc2)cc1

emission maximum (in CO): 478 nm
Structure (SMILES): COc1ccc(-c2nc(-c3cccc(C#N)c3)[nH]c2-c2ccc(OC)cc2)cc1

emission maximum (in CC#N): 332 nm
emission maximum (in CCOC(C)=O): 326 nm
emission maximum (in CO): 337 nm
Structure (SMILES): COC(=O)C[C@H](Cc1c[nH]c2ccccc12)NC(=O)[C@H](CC(=O)N[C@@H](CC1=CCc2ccccc21)C(=O)OC)NC(=O)OC(C)(C)C

emission maximum (in ClCCl): 490 nm
Structure (SMILES): CN(C)c1cccc(/C=C/c2ncc(-c3ccc(OCc4ccccc4)c(OCc4ccccc4)c3)o2)c1

emission maximum (in ClCCl): 459 nm
Structure (SMILES): COc1ccc(C#Cc2nc(C#Cc3ccc(OC)cc3)c(C#Cc3ccc(OC)cc3)c(C#Cc3ccc(OC)cc3)c2C#Cc2ccc(OC)cc2)cc1

emission maximum (in ClCCl): 527 nm
Structure (SMILES): CCCCCCCCCCCCN1C(=O)c2c(c3ccc4cc(-c5ccc(-c6ccccc6)cc5)c(OC)cc4c3c3c2ccc2cc(-c4ccc(-c5ccccc5)cc4)c(OC)cc23)C1=O

emission maximum (in C1CCCCC1): 395 nm
Structure (SMILES): CCCC1(CCC)c2cc(-c3ccc(C(C)(C)C)cc3)ccc2-c2ccc(-c3ccc4c(c3)C(CCC)(CCC)c3cc(-c5ccc(C(C)(C)C)cc5)ccc3-4)cc21

emission maximum (in C1CCOC1): 384 nm
emission maximum (in ClCCl): 384 nm
Structure (SMILES): Cc1ccc(-c2ccc3ccc4cc(C(C)(C)C)cc5ccc2c3c45)cc1

emission maximum (in C1CCOC1): 472 nm
Structure (SMILES): c1cc2ccc1-c1ccc(cc1)-c1ccc(s1)-c1ccc(cc1)-c1ccc(cc1)-c1ccc(s1)-c1ccc(cc1)-c1ccc(cc1)-c1ccc(s1)-c1ccc(cc1)-c1ccc(cc1)-c1ccc-2s1

emission maximum (in ClCCl): 571 nm
Structure (SMILES): CCC(C)[Si](C#Cc1c2nc3c4ccccc4c(=O)c4ccccc4c3nc2c(C#C[Si](C(C)CC)(C(C)CC)C(C)CC)c2nc3c4ccccc4c(=O)c4ccccc4c3nc12)(C(C)CC)C(C)CC (stereo unspecified)

emission maximum (in ClC(Cl)Cl): 612 nm
Structure (SMILES): COc1ccc(-c2oc3cccc4c5c(-c6ccc(OC)cc6)/c(=N/S(=O)(=O)C(F)(F)F)oc6cccc(c2c34)c65)cc1

emission maximum (in CC#N): 519 nm
emission maximum (in CO): 562 nm
Structure (SMILES): O=c1c2ccccc2c2c3c(cccc13)c(-c1ccccc1)c1c3cccc4cccc(c43)c12

emission maximum (in C1CCOC1): 406 nm
Structure (SMILES): C(=C1c2ccccc2CCc2ccccc21)c1ccc(C=C2c3ccccc3CCc3ccccc32)cc1

emission maximum (in ClC(Cl)Cl): 626 nm
Structure (SMILES): CCCCCCN1C(=O)C(c2ccc(-n3c4ccccc4c4ccccc43)cc2)=C(c2ccc(-n3c4ccccc4c4ccccc43)cc2)C1=O
emission maximum [1]: 591 nm

emission maximum (in ClCCl): 490 nm
Structure (SMILES): c1ccc(-c2nc(-c3ccc(N4c5ccccc5Oc5ccccc54)cc3)nn2-c2ccc(N3c4ccccc4Oc4ccccc43)cc2)nc1

emission maximum (in C1CCCCC1): 479 nm
emission maximum (in CC#N): 480 nm
emission maximum (in CO): 474 nm
emission maximum (in ClCCl): 484 nm
emission maximum (in O): 481 nm
Structure (SMILES): Oc1ccccc1-c1nc(-c2ccccc2)c2ccccn12

emission maximum (in CO): 493 nm
Structure (SMILES): Brc1cnc(-c2ccc(N(c3ccccc3)c3ccccc3)cc2)s1

emission maximum (in ClCCl): 333 nm
Structure (SMILES): COc1ccc(-c2cc(-c3ccccc3)nn2C)cc1

emission maximum (in CC1CCCCC1): 501 nm
emission maximum (in CC#N): 503 nm
Structure (SMILES): C(=C\c1c2ccccc2cc2ccccc12)/c1cccc2ccccc12

emission maximum (in ClCCl): 440 nm
Structure (SMILES): C(=C\c1cccc2ccccc12)/c1ncc(-c2ccccc2)o1

emission maximum (in ClCCl): 420 nm
Structure (SMILES): CCCCC(CC)Cn1c2cc(C#N)ccc2c2ccc(C#Cc3ccc4ccc5cccc6ccc3c4c56)cc21 (stereo unspecified)

emission maximum (in C1CCOC1): 395 nm
Structure (SMILES): CCC1(CC)c2ccccc2-c2c1c1c(c3c2C(CC)(CC)c2cc(/C=C/c4cccs4)ccc2-3)C(CC)(CC)c2ccccc2-1

emission maximum (in C1CCOC1): 465 nm
Structure (SMILES): N#Cc1c(N2CCCCC2)cc(-c2cccc3ccccc23)c2c1CCc1ccccc1-2

emission maximum (in ClC(Cl)Cl): 383 nm
Structure (SMILES): CCC[Si](CCC)(CCC)c1cc2ccc3cccc4ccc(c1C(=O)NC(C)(C)C)c2c34

emission maximum (in C1CCOC1): 505 nm
Structure (SMILES): COc1cc2c(cc1-c1cccs1)Cc1c3c(c4c(c1-2)-c1cc(OC)c(-c2cccs2)cc1C4)C(=O)N(CCC(C)C)C3=O
